Patent publication US10138282B2, “Peptide antagonist of LL-37” (INDIANA UNIVERSITY RESEARCH AND TECHNOLOGY CORPORATION, priority 2014, dated 2018)
“Also recorded” adds a separate entry of the source.

What was measured:
FPRL-1 receptor = target: T1, FPRL-1 receptor (Homo sapiens, UniProt P25090); assay: IL-6 production in BEAS-2B cells knocked down with siRNA (FPRL-1, EGFR, control); type: cell-based
T1 construct: a human lung epithelial cell line that expresses endogenous FPRL-1; endogenous in cells; host or cells: BEAS-2B
T1 sequence (P25090 1-351): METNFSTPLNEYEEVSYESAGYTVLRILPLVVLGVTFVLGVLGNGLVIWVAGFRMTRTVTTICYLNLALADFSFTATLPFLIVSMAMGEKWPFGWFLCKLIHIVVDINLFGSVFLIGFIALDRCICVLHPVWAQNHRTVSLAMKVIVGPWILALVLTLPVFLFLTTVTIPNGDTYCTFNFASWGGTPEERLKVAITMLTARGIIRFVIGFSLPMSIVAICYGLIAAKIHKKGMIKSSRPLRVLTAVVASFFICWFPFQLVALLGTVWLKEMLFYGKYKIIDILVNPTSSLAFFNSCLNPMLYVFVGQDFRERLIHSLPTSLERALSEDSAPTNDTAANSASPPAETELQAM
Description: BEAS-2B cells were seeded at 2×10^6 cells per 6-well plate for 6 h prior to transfection with 30 nM of a pool of three siRNAs from Santa Cruz Biotechnology. Transfections were done using Lipofectamine 2000.
Cells were grown on poly-L-lysine (Life Technologies). The level of target mRNA was analyzed using qRT-PCR and normalized to the levels of GAPDH mRNA. The sequences of the primers will be made available upon request. Poly(I:C) was added 48 h after siRNA transfection and IL-6 levels in the culture media were collected 24 h later.
LL-37's enhancement of TLR3 signaling required trafficking of LL-37/poly(:C) to endosomes via the FPRL-1 receptor. Therefore, we examined whether LL-29 used the FPRL-1 receptor to enter cells. siRNA was used to knock down the expression of either FPRL-1, EGFR, or TLR3. […] Co-localization of fLL-37 and rpIC was reduced to less than a third of the control. […] Knockdowns performed with siRNAs to either a nonspecific control or EGFR had no effect on the enhancement of IL-6 production.
Will LL-29 affect the use of the FPRL-1 receptor by the LL-37/poly(I:C) complex? BEAS-2B cells knocked down for FPRL-1 were treated with LL-37 along with additional concentrations of LL-37, Pentamide, LL-29, Peptide A, or LL8-37 (FIG. 6C). Signaling by TLR3 was determined by the amount of IL-6 secreted in the cell culture media. A control siRNA had no effect on WT LL-37/poly(I:C) enhancement of IL-6 production.
LL-37 uses the Formyl peptide receptor-like 1 (FPRL-1) receptor to deliver nucleic acids into endosomes, where activation of the Toll-like receptors that recognize nucleic acids takes place (Singh et al., 2014). We sought to determine whether the LL-37 orthologs from other mammals could also use the FPRL-1 in the human BEAS-2B cells to deliver dsRNA. BEAS-2B cells were treated with poly(I:C) along with the peptides and the peptides from pig, sheep, rabbit, and mouse had reduced ability to use the FPRL-1 to activate IL-6 production.

[1] = Dynamic light scatter spectroscopy, hydrodynamic radius; type: physicochemical
Description: The hydrodynamic radii of LL-37 and other peptides were monitored by a Zetasizer Nano-S instrument (Malvern Instruments). All measurements were taken with 1 μM of peptide dissolved in phosphate buffer adjusted to the desired pH at 22° C.

f-LL37 = target: T2, f-LL37 (Homo sapiens, UniProt P49913); assay: Fluorescence polarization, interaction of peptides with fluorescein-labeled LL-37; type: binding
T2 sequence (P49913 134-170 limits assumed): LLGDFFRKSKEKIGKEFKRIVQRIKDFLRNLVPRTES
Description: (§1) Peptide binding to poly(I:C) was analyzed by monitoring fluorescence polarization using the Synergy H1 microplate reader (BioTek). Fluorescein-labeled LL-37 was titrated to a 100 μL solution containing poly(I:C) and phosphate buffers at different pHs. Interactions between LL-37 and other peptides were analyzed using LL-37 labeled at the N-terminus with fluorescein (0.1 μM), and peptides were titrated from 1 nM to 1000 nM in phosphate buffer at pH 7.0. Interaction between poly(I:C) and different peptides was determined by titrating fluorescein-labeled poly(I:C) (0.1 μM) with peptides added to final concentrations of 10 to 500 nM in phosphate buffer at pH 7.4. All polarization assays were performed in triplicate.

TLR4 signaling = assay: IL-6 production (ELISA) in BEAS-2B cells induced with LPS; type: cell-based, human
Description: (§2) IL-6 production was quantified by ELISA using the OptEIA™ kit (BD Biosciences). A typical assay used 2×10^4 BEAS-2B cells/well grown for 24 h in flat bottom 96-well plates. Poly(I:C) was added to a final concentration of 0.13 μg/ml. Antimicrobial peptides were added to the cell culture medium to a final concentration of 3 μM unless specified otherwise. All ELISA results shown were performed in triplicate and in at least three independent experiments.
(§3) To better define how residues in LL-37 contribute to function, several variants derived from LL-37 were tested for: 1) repression of TLR4 signaling by LPS, 2) enhancement of TLR3 signaling by poly(I:C), and 3) binding to LL-37. Signaling by TLR3 and TLR4 were monitored using ELISA to detect IL-6 secreted into the medium of BEAS-2B cells.

[2] = test system: Escherichia coli ATCC 25922; assay: MIC assay, broth microdilution (CLSI); type: cell-based; details: E. coli ATCC 25922
Description: MIC assays were performed according to protocols for broth microdilution according to the Clinical Laboratory Standards Institute (CLSI, 2015. Methods for Dilution Antimicrobial susceptibility tests for bacterial that grow aerobically; Approved standard—tenth edition).

[3] = test system: LL-37 enhancement of TLR3 signaling; assay: Antagonism of LL-37/poly(I:C)-enhanced IL-6 production in BEAS-2B cells; type: cell-based, human
Description: as §2
We examined whether LL-29 could affect the enhancement of TLR3 signaling by WT LL-37/poly(I:C). An increasing amount of LL-29 along with a constant amount of LL-37/poly(I:C) was used to assess IL-6 production in BEAS-2B cells. […] That is, LL-29 abrogated LL-37's ability to enhance TLR3 signaling. That is, LL-29 is an example of a peptide antagonist of LL-37 function.

TLR3 signaling = assay: IL-6 production (ELISA) in BEAS-2B cells induced with poly(I:C); type: cell-based, human
Description: as §2, §3

TLR3 = assay: Confocal microscopy, co-localization with TLR3 in BEAS-2B cells; type: cell-based, human
Description: Cells were grown on poly-L-lysine coated coverslips to 60% confluency. After 1 h incubation with fluorescently-labeled peptides in the absence or presence of poly(I:C), the cells were washed with PBS and fixed with 4% paraformaldehyde for 15 min at room temperature. The cells were again washed with PBS and mounted on glass slides with anti-fade mounting medium and DAPI (Life Technology), then dried overnight in the dark. Micrographs were acquired with a Leica TCS SP5 confocal inverted-base microscope with a 63× oil objective. Images were analyzed by Leica LAS AF and Image J software. Colocalization of fluorophores was quantified using the Image J plug-in tool JACoP (16).
We examined whether it could prevent the trafficking of LL-37/poly(I:C) to endosomes that harbor TLR3. Confocal microscopy was used to examine the effect of LL-29 on the colocalization of LL-37/poly(I:C) with TLR3 in BEAS-2B cells.

Reovirus dsRNA, Reo S4 = assay: IL-6 production in BEAS-2B cells in the presence of Reovirus dsRNA Reo S4; type: cell-based, human
Description: as §2
Herein, we analyzed the LL-37 orthologs from Rhesus monkeys, pig, sheep, guinea pigs, rabbit, as well as mouse (FIG. 14A). All peptides were chemically synthesized and assayed for the induction of inflammatory cytokine IL-6 in the presence of the double-stranded RNA mimic, poly(I:C) or the Reovirus dsRNA, Reo S4 (FIGS. 14B and 14C). […] Importantly, all LL-37 orthologs tested had the ability to reduce IL-6 production in response to LPS (FIG. 14E).

Toll-like receptor 9 = assay: IL-6 production in BEAS-2B cells in the presence of ssDNA ligand ODN; type: cell-based, human
in vitro = type: cell-based; details: human, Half-life of LL-37 in cells
Description: Acidification of endosomes can activate cathepsins that can cleave TLR3, 7, and 9 and increase signaling. We examined whether LL-37 would be subject to proteolysis, possibly by cathepsins. BEAS-2B cells were treated with LL-37 in the absence or presence of poly(I:C) for 15 min, then washed with phosphate-buffered saline and incubated with fresh medium. The cells were harvested over time, lysed and subjected to Western blot analysis. LL-37 accumulation decreased over time, with an estimated half-life of 1 h (FIG. 4A, 4B). Cells treated with ammonium chloride or the cathepsin inhibitor Z-FA-FMK had half-lives in excess of 12 h (FIG. 4A, 4B).

poly(I:C) = assay: Fluorescence polarization, peptide binding to poly(I:C)
Description: as §1
LL-37 accompanies dsRNA to endosomes containing TLR3. However, it is unknown whether LL-37 will release the dsRNA in endosomes. Johansson et al. (1998) have previously determined that a neutral pH is required for the activity of LL-37. We seek to determine whether LL-37 binding to dsRNA can be affected by pH.

LLGDFFRKSKEKIGKEFKRIVQRIKDFLR ((1)..(29) LL29; listed as Homo sapiens) [LL-29]
IL-6 production, peptide with poly(I:C), in words (FPRL-1 receptor; knockdown of either FPRL-1 or EGFR): did not enhance IL-6 production | IL-6 production, peptide added along with LL-37 and poly(I:C), in words (FPRL-1 receptor; siRNA to FPRL-1 or nonspecific control): resulted in a reduction in IL-6 levels | Hydrodynamic radius (nm) pH 5.8 ([1]; 1.0 μM peptide, phosphate buffer pH 5.8): 8 nm | Hydrodynamic radius (nm) pH 7.4 ([1]; 1.0 μM peptide, phosphate buffer pH 7.4): 1106 nm | pH-dependent dissociation of peptide particles, in words ([1]; acidification of phosphate buffer): readily dissociated into nanometer-sized particles; also recorded: dissociated as a function of pH | Interaction with fLL-37, in words (f-LL37): interacted with fLL-37 to the same degree as LL-37; also recorded: comparable ability to interact with fLL-37 | Suppression of TLR4 signaling / LPS-induced IL-6, in words (TLR4 signaling; BEAS-2B cells): retained the ability to suppress TLR4 signaling in response to LPS | IL-6 production (%) LPS-depend. (TLR4 signaling; BEAS-2B cells induced with 1.0 μg/ml of LPS, LL-37 100): 143 ± 18% | IL-6 production in response to LPS, % of the control level without either of the two peptides (TLR4 signaling; four molar excess of LL-29 to LL-37, BEAS-2B cells): 64% | MIC assay result, peptide without antibiotic ([2]; peptide 10 μg/ml, antibiotic: None): growth | MIC (μg/ml) of Doxorubicin in the presence of peptide ([2]; peptide final conc. 10 μg/ml): ≤0.06 µg/mL | MIC (μg/ml) of Kanamycin in the presence of peptide ([2]; peptide final conc. 10 μg/ml): ≤0.5 µg/mL | MIC (μg/ml) of Trimethoprim in the presence of peptide ([2]; peptide final conc. 10 μg/ml): ≤0.06 µg/mL | Improvement of the MIC of antibiotics by peptide ([2]; with doxorubicin, kanamycin, trimethoprim): at least 4 fold | IL-6 production with LL-37/poly(I:C) at four molar excess of peptide, in words ([3]; four molar excess of LL-29 relative to LL-37): comparable to the level observed in the absence of LL-37 | Antagonism of LL-37 enhancement of TLR3 signaling (IL-6), in words ([3]; peptide added with LL-37/poly(I:C), BEAS-2B cells): reduced the enhancement of TLR3 signaling by LL-37 in a concentration-dependent manner | IL-6 production (%) poly(I:C)-depend. (TLR3 signaling; BEAS-2B cells induced with 130 ng/ml of poly(I:C), LL-37 100): 47 ± 3% | Effect of added peptide on co-localization of fLL-37 and TLR3, in words (TLR3; added to fLL-37 and poly(I:C)): reduced the co-localization between fLL-37 and TLR3

PAMP-37: LL-37 ortholog from pig, SEQ ID NO: 22 (GLLSRLRDFLSDRGRRLGEKIERIGQKIKDLSEFFQS; (1)..(37) Pig PMAP-37; listed as Sus scrofa)
Enhancement of IL-6 production / signaling by Reo S4, in words (Reovirus dsRNA, Reo S4): failed to enhance signaling | Enhancement of TLR3 signaling / poly(I:C)-induced IL-6, in words (TLR3 signaling; BEAS-2B cells): failed to enhance signaling | Induction of signaling by the ssDNA ligand for Toll-like receptor 9, in words (Toll-like receptor 9): failed to induce signaling

CC[C@H](C)[C@H](NC(=O)[C@H](CCCCN)NC(=O)[C@H](CCC(=O)O)NC(=O)[C@H](CCCCN)NC(=O)[C@H](CO)NC(=O)[C@H](CCCCN)NC(=O)[C@H](CCCNC(=N)N)NC(=O)[C@H](Cc1ccccc1)NC(=O)[C@H](Cc1ccccc1)NC(=O)[C@H](CC(=O)O)NC(=O)CNC(=O)[C@H](CC(C)C)NC(=O)[C@@H](N)CC(C)C)C(=O)NCC(=O)N[C@@H](CCCCN)C(=O)N[C@@H](CCC(=O)O)C(=O)N[C@@H](Cc1ccccc1)C(=O)N[C@@H](CCCCN)C(=O)N[C@@H](CCCNC(=N)N)C(=O)N[C@H](C(=O)N[C@H](C(=O)N[C@@H](CCC(N)=O)C(=O)N[C@@H](CCCNC(=N)N)C(=O)N[C@H](C(=O)N[C@@H](CCCCN)C(=O)N[C@@H](CC(=O)O)C(=O)N[C@@H](Cc1ccccc1)C(=O)N[C@@H](CC(C)C)C(=O)N[C@@H](CCCNC(=N)N)C(=O)N[C@@H](CC(N)=O)C(=O)N[C@@H](CC(C)C)C(=O)N[C@H](C(=O)N1CCC[C@H]1C(=O)N[C@@H](CCCNC(=N)N)C(=O)N[C@H](C(=O)N[C@@H](CCC(=O)O)C(=O)N[C@@H](CO)C(=O)O)[C@@H](C)O)C(C)C)[C@@H](C)CC)C(C)C)[C@@H](C)CC [LL-37]
half-life (in vitro): ~1 h | half-life (in vitro; cells or culture medium): ~1 h

fLL-37: 5′ carboxyfluorescein coupled to the N-terminus of LL-37 [reference compound]
Binding to poly(I:C)/dsRNA in fluorescent polarization assay, in words (poly(I:C)): polarization increased as a function of poly(I:C) concentration | Co-localization of peptide with TLR3, in words (TLR3; with poly(I:C)): found to colocalize with TLR3
